According to patent publication US6358981B1, “Sulphonamide derivatives” (Eli Lilly and Company, priority 1998, dated 2002):

Assays:
human GluR4B receptor = biological target: T1, human GluR4B receptor (Homo sapiens, UniProt P48058); assay: potentiation of agonist-induced excitability of human GluR4B receptor expressed in HEK 293 cells; format: cell-based
T1 construct: expressed in transfected cells
Text: The ability of compounds of formula I to potentiate glutamate receptor-mediated response may be determined using fluorescent calcium indicator dyes (Molecular Probes, Eugene, Oreg., Fluo-3) and by measuring glutamate-evoked efflux of calcium into GluR4 transfected HEK293 cells, as described in more detail below.
In one test, 96 well plates containing confluent monolayers of HEK cells stably expressing human GluR4B (obtained as described in European Patent Application Publication Number EP-A1-583917) are prepared. The tissue culture medium in the wells is then discarded, and the wells are each washed once with 200 μl of buffer (glucose, 10 mM, sodium chloride, 138 mM, magnesium chloride, 1 mM, potassium chloride, 5 mM, calcium chloride, 5 mM, N-[2-hydroxyethyl]-piperazine-N-[2-ethanesulfonic acid], 10 mM, to pH 7.1 to 7.3). […]
Each test is then performed as follows. […] A second fluorescent reading is taken after 5 minutes incubation. 15 μl of 400 μM glutamate solution is then added to each well (final glutamate concentration 100 μM), and a third reading is taken. The activities of test compounds and cyclothiazide solutions are determined by subtracting the second from the third reading (fluorescence due to addition of glutamate in the presence or absence of test compound or cyclothiazide) and are expressed relative to enhance fluorescence produced by 100 μM cyclothiazide.

T1 sequence (P48058 21-902): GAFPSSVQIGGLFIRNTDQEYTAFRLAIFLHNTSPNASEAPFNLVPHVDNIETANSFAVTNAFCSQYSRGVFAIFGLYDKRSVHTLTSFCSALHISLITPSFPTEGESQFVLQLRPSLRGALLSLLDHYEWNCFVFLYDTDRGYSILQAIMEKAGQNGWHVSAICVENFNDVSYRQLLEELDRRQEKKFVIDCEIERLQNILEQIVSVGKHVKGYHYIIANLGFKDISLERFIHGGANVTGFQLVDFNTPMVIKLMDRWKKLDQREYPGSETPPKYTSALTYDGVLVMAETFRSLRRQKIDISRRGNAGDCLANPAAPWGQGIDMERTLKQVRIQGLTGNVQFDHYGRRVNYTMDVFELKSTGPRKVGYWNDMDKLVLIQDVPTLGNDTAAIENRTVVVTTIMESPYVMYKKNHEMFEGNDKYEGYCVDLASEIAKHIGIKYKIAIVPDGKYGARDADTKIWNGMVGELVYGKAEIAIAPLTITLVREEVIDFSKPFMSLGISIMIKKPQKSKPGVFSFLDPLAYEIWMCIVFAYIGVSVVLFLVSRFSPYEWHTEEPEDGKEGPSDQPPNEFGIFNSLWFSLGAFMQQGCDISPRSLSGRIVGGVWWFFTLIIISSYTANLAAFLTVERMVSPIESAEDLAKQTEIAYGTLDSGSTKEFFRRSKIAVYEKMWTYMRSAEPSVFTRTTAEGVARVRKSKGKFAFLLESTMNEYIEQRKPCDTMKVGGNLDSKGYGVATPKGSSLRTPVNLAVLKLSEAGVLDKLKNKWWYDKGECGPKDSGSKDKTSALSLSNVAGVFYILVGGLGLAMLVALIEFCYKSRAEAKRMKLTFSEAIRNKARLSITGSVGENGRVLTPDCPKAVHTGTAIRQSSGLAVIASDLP

melting point	SMILES	potentiation of agonist-induced excitability (human GluR4B receptor)
–	NS(=O)(=O)c1cc2c(cc1Cl)NC(C1CC3C=CC1C3)NS2(=O)=O (centres unmarked) [cyclothiazide]	potentiate agonist-induced excitability
89 to 91 °C	CC(C)S(=O)(=O)NCC(F)c1ccc(-c2ccccc2)cc1 (centres unmarked)	–
